Results on 24 molecules are retold here after US9186360B2, “Treatment of respiratory disorders using TRPA1 antagonists” (GLENMARK PHARMACEUTICALS S.A., priority 2011, dated 2015).

What all share (format): cell-based
One test addresses human TRPA1 (Homo sapiens (Human), UniProt O75762). Nature of the test: 45Calcium uptake assay, AITC induced, human TRPA1 expressing CHO cells. The settings on record: AITC 30 micromolar, read-out: IC50 values hTRPA1. The method, then:
As contemplated herein, the IC50 value is measured by the following method. The inhibition of TRPA1 receptor activation is measured as inhibition of allylisothiocyanate (AITC) induced cellular uptake of radioactive calcium. Test solution of test compound is prepared in a suitable solvent using appropriate method. Human TRPA1 expressing CHO cells are grown in suitable medium. Cells are treated with test compounds followed by addition of AITC. Cells are washed and lysed. Radioactivity in the lysate is measured in Packard Top count after addition of liquid scintillant. The concentration response curves for compounds are plotted as a % of maximal response obtained in the absence of test antagonist, and the IC50 values are calculated from such concentration response curve by nonlinear regression analysis using GraphPad PRISM software.
The illustrative TRPA1 antagonists of the present invention were screened for TRPA1 activity according to a modified procedure described in Tóth, A. et al., Life Sciences 2003, 73, 487-498. The screening of the compounds can be carried out by other methods and procedures known to persons skilled in the art.
Screening for TRPA1 Antagonist Using the 45Calcium Uptake Assay:
The inhibition of TRPA1 receptor activation was measured as inhibition of allylisothiocyanate (AITC) induced cellular uptake of radioactive calcium. Test compounds were dissolved in DMSO to prepare 10 mM stock solution and then diluted using plain medium with 0.1% BSA and 1.8 mM CaCl2 to get desired concentration. Final concentration of DMSO in the reaction was 0.5% (v/v). Human TRPA1 expressing CHO cells were grown in F-12 DMEM medium with 10% FBS, 1% penicillin-streptomycin solution, and 400 μg/ml of G-418. Cells were seeded 24 h prior to the assay in 96 well plates so as to get ˜50,000 cells per well on the day of experiment. Cells were treated with test compounds for 10 min followed by addition of AITC at a final concentration of 30 micromolar and 5 μCi/ml 45Ca+2 for 3 min at 25° C. Cells were washed and lysed using buffer containing 1% Triton X-100, 0.1% deoxycholate and 0.1% SDS. Radioactivity in the lysate was measured in Packard Top count after addition of liquid scintillant.
Concentration response curves were plotted as a % of maximal response obtained in the absence of test antagonist. IC50 value was calculated from concentration response curve by nonlinear regression analysis using GraphPad PRISM software.

The next test has as its target human TRPV1 (Homo sapiens (Human), UniProt Q8NER1). Nature of the test: Radiometric calcium selectivity assay, CHO cells expressing human TRPV1 (capsaicin). Particulars: read-out: IC50 values hTRPV1. The method, then:
(§1) For selectivity screening, CHO cells stably expressing human TRPV1, human TRPV3, human TRPV4, or human TRPM8 were generated in-house and maintained in DMEM F-12 supplemented with 10% FBS and G418. All the cell types were cultured at 37° C. in humidified air containing 5% CO2. Radiometric calcium assay was performed as described above with some minor modifications. Assay was carried out in total volume of 200 μl at 30° C. (for TRPV1), 32° C. (for TRPV3) and 25° C. (for TRPV4 and TRPM8). Agonists used for selectivity screening of the different TRPs are: Capsaicin for TRPV1,2-aminoethoxydiphenyl borate for TRPV3, 4α-phorbol 12,13-didecanoate for TRPV4 and Icilin for TRPM8. After 2-5 minutes of agonist treatment, drug was washed and lysed in lysis buffer as mentioned above. Radioactivity in the lysate was measured in Packard Top count after addition of liquid scintillant.

The target in another test is human TRPV3 (Homo sapiens (Human), UniProt Q8NET8). Kind of test: Radiometric calcium selectivity assay, CHO cells expressing human TRPV3 (2-aminoethoxydiphenyl borate). The settings on record: read-out: IC50 values hTRPV3. The method, then:
as §1

In a further test the target is human TRPV4 (Homo sapiens (Human), UniProt Q9HBA0). Kind of test: Radiometric calcium selectivity assay, CHO cells expressing human TRPV4 (4α-phorbol 12,13-didecanoate). The settings on record: read-out: IC50 values hTRPV4. As to the method: as §1
human TRPV4, sequence (Q9HBA0 whole entry): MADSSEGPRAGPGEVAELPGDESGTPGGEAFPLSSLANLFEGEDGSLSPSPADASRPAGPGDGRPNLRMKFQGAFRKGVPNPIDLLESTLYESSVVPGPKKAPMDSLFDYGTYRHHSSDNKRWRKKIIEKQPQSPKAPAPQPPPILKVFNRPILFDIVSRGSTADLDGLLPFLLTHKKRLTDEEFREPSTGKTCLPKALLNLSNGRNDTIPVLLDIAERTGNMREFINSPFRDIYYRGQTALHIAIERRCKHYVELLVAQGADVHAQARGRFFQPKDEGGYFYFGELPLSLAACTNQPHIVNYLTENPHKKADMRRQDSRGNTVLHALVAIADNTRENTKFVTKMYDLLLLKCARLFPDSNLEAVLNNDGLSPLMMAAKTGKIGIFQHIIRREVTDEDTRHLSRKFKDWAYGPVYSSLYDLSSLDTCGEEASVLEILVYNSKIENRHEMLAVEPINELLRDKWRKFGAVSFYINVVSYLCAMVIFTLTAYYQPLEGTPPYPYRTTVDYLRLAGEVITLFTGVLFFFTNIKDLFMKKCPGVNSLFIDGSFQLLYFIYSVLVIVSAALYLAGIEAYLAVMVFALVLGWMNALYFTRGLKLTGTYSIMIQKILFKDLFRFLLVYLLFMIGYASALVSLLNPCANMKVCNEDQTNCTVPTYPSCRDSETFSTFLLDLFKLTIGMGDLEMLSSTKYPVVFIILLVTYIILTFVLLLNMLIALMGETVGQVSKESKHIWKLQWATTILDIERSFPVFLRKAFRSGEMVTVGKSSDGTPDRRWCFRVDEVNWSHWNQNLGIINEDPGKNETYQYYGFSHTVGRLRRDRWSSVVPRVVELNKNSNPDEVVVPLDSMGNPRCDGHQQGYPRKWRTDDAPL
The next test deals with human TRPM8 (Homo sapiens (Human), UniProt Q7Z2W7). Nature of the test: Radiometric calcium selectivity assay, CHO cells expressing human TRPM8 (icilin). Particulars: read-out: IC50 values hTRPM8. As to the method:
as §1

Each structure is given as a SMILES string. Some results are limits rather than exact numbers.

human TRPA1, sequence (O75762 whole entry): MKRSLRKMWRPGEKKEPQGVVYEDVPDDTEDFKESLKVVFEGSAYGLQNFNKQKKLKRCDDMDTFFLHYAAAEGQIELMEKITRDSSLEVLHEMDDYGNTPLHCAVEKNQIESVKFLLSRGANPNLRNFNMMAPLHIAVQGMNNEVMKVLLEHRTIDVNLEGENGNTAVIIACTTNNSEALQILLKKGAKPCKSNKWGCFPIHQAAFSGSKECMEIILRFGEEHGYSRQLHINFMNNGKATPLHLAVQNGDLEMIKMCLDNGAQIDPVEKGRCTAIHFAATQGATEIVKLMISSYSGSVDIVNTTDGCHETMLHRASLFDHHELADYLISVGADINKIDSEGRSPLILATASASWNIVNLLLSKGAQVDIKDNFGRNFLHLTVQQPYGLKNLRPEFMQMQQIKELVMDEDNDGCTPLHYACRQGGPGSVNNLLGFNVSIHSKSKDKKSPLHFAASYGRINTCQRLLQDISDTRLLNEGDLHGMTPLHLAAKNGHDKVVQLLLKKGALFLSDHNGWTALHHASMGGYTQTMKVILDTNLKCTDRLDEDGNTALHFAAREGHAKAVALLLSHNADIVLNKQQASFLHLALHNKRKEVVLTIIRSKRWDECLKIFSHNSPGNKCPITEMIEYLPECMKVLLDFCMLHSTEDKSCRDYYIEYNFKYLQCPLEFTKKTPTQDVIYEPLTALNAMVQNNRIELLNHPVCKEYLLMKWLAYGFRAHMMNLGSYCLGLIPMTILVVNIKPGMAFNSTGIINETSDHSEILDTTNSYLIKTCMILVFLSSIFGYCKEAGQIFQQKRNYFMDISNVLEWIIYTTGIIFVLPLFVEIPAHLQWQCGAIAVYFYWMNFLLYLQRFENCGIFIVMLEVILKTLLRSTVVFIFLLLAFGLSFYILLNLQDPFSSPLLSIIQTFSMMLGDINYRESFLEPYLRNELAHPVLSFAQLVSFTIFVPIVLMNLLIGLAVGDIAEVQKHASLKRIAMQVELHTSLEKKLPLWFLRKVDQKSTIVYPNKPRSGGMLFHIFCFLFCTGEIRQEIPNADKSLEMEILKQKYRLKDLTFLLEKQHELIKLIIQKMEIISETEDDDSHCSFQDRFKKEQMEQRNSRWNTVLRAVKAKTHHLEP
human TRPV1, sequence (Q8NER1 whole entry): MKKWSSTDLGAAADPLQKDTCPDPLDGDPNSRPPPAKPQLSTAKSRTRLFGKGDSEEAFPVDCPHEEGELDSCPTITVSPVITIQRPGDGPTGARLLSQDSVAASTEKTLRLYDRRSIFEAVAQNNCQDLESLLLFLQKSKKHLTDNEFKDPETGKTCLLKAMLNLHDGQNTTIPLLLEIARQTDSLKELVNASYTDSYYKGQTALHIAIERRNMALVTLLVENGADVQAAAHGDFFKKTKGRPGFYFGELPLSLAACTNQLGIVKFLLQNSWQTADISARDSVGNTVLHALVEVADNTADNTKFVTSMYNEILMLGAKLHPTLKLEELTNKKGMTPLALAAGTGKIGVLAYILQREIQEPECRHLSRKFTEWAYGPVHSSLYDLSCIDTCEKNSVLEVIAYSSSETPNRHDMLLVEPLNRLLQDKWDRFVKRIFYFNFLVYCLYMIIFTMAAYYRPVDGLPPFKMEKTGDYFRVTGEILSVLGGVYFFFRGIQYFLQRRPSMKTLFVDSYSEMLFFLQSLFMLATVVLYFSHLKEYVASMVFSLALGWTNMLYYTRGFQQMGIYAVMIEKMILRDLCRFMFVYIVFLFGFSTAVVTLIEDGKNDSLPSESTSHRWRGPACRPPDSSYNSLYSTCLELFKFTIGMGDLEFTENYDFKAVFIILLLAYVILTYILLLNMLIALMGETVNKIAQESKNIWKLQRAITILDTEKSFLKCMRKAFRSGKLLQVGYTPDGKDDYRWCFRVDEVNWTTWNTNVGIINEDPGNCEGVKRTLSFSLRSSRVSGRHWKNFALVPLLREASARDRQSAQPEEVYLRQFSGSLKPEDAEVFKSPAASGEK
human TRPV3, sequence (Q8NET8 whole entry): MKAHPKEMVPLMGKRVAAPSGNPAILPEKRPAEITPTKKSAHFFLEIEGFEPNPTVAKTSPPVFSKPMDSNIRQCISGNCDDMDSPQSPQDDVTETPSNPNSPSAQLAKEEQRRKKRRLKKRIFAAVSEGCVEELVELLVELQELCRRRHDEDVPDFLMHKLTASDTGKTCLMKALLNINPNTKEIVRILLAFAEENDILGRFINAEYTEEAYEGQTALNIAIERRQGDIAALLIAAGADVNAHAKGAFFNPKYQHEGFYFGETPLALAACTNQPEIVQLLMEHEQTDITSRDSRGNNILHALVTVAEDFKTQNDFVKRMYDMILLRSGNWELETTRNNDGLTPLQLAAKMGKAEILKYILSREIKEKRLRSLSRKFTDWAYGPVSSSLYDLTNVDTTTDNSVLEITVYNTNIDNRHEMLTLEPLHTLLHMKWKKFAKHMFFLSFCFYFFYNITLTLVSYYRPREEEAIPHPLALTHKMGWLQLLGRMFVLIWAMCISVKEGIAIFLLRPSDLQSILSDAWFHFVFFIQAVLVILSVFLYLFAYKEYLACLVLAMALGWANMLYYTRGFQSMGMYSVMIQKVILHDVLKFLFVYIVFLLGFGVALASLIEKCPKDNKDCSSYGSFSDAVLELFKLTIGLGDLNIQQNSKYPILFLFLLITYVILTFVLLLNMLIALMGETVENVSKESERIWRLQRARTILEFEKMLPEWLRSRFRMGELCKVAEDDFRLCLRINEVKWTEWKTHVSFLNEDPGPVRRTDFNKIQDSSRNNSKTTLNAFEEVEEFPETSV
human TRPM8, sequence (Q7Z2W7 whole entry): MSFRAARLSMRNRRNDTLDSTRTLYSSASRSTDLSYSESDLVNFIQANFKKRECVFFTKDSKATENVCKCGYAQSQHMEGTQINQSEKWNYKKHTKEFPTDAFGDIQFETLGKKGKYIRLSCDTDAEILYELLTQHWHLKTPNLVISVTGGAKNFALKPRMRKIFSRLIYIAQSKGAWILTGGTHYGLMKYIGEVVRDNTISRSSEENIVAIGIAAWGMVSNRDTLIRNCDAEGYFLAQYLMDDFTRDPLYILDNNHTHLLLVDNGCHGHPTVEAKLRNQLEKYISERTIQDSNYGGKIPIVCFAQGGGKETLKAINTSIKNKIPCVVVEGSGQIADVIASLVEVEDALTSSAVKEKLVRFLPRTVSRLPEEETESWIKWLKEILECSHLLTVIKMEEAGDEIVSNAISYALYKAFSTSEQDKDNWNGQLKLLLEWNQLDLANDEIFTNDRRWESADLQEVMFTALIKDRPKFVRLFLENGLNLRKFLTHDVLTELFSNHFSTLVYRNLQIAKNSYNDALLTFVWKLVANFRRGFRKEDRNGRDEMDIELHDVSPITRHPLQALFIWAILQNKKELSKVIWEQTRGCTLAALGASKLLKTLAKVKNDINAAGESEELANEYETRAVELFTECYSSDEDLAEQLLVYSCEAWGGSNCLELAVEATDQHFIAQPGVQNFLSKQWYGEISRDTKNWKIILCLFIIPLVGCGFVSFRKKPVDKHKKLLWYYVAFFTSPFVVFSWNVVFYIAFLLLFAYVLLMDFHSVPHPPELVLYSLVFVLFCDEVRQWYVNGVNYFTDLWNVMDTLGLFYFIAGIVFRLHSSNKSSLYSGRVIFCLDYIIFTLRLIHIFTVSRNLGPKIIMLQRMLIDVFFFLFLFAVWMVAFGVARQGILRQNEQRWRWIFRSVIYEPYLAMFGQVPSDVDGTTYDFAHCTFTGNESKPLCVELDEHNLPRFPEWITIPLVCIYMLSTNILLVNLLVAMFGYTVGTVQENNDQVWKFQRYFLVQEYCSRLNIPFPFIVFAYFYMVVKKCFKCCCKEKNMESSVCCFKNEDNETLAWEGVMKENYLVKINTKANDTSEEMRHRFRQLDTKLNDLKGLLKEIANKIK

On to `CC(C)CCOc1ccc(-c2csc(NC(=O)Cc3cccc4c3c(=O)n(C)c(=O)n4C)n2)cc1` [Compound 22], for which the half-inhibitory concentration (IC50) on human TRPA1 is 0.0798 µM; at human TRPV1, greater than 10 µM; on human TRPV3, greater than 10 µM; on human TRPV4, greater than 1 µM; on human TRPM8, greater than 10 µM.

For `CC(C)COc1ccc(-c2csc(NC(=O)Cc3cccc4c3c(=O)n(C)c(=O)n4C)n2)cc1` [Compound 23], the IC50 on human TRPA1 is 0.0439 µM; on human TRPV1, greater than 10 µM; at human TRPV3, greater than 10 µM; at human TRPV4, greater than 1 µM; on human TRPM8 it was greater than 10 µM.

Regarding `Cn1c(=O)c2c(CC(=O)Nc3nc(-c4cc(Cl)ccc4F)cs3)cccc2n(C)c1=O` [Compound 24], the IC50 on human TRPA1 was 0.138 µM; at human TRPV1, greater than 10 µM; at human TRPV3, greater than 1 µM; on human TRPV4, greater than 10 µM; at human TRPM8, greater than 10 µM.

With `Cn1c(=O)c2c(CC(=O)Nc3nc(-c4cccc(Cl)c4F)cs3)cccc2n(C)c1=O` [Compound 25], the IC50 on human TRPA1 was 0.0585 µM; at human TRPV1, greater than 10 µM; at human TRPV3, greater than 1 µM; at human TRPV4, greater than 1 µM; on human TRPM8, greater than 10 µM.

For `Cn1c(=O)c2c(CC(=O)Nc3nc(-c4cccc(OC(F)(F)F)c4)cs3)cccc2n(C)c1=O` [Compound 26], the 50% inhibitory concentration (IC50) is 0.0479 µM on human TRPA1; greater than 10 µM on human TRPV1; greater than 1 µM on human TRPV3; greater than 1 µM on human TRPV4; greater than 10 µM on human TRPM8.

As to `Cn1c(=O)c2c(CC(=O)Nc3nc(-c4cccc(F)c4F)cs3)cccc2n(C)c1=O` [Compound 27], the IC50 was 0.0655 µM on human TRPA1; greater than 10 µM at human TRPV1; greater than 10 µM on human TRPV3; greater than 10 µM on human TRPV4; greater than 10 µM on human TRPM8.

As for `Cn1c(=O)c2c(CC(=O)Nc3nc(-c4ccc(C(F)(F)F)c(F)c4F)cs3)cccc2n(C)c1=O` [Compound 28], the IC50 on human TRPA1 was 0.00649 µM; at human TRPV1, greater than 10 µM; on human TRPV3 it was greater than 1 µM; at human TRPV4 it was 0.903 µM; on human TRPM8, greater than 10 µM.

With `Cn1c(=O)c2c(CC(=O)Nc3nc(-c4ccc(OC(F)(F)F)c(F)c4)cs3)cccc2n(C)c1=O` [Compound 29], the IC50 is 0.0114 µM at human TRPA1; greater than 10 µM on human TRPV1; greater than 1 µM on human TRPV3; greater than 10 µM at human TRPV4; greater than 10 µM at human TRPM8.

As to `Cn1c(=O)c2c(CC(=O)Nc3nc(-c4ccc(OC(F)F)c(Cl)c4)cs3)cccc2n(C)c1=O` [Compound 30], the IC50 is 0.034 µM at human TRPA1; greater than 10 µM at human TRPV1; greater than 10 µM at human TRPV3; greater than 10 µM at human TRPV4; greater than 10 µM at human TRPM8.

`Cn1c(=O)c2c(CC(=O)Nc3nc(-c4ccc(F)c(C(F)(F)F)c4F)cs3)cccc2n(C)c1=O` [Compound 31]: the IC50 on human TRPA1 is 0.0173 µM; on human TRPV1 it was greater than 10 µM; on human TRPV3 it was greater than 10 µM; at human TRPV4 it was greater than 10 µM; on human TRPM8, greater than 10 µM.

As to `Cn1c(=O)c2c(CC(=O)Nc3nc(-c4cc(F)c(OCC(F)(F)F)c(F)c4)cs3)cccc2n(C)c1=O` [Compound 32], the IC50 was 0.00596 µM at human TRPA1; greater than 10 µM at human TRPV1; greater than 10 µM on human TRPV3; greater than 1 µM on human TRPV4; greater than 10 µM at human TRPM8.

Regarding `Cn1c(=O)c2c(CC(=O)Nc3nc(-c4cc(F)c(C(F)(F)F)c(F)c4)cs3)cccc2n(C)c1=O` [Compound 33], the IC50 at human TRPA1 was 0.00537 µM; on human TRPV1, greater than 10 µM; at human TRPV3, greater than 10 µM; at human TRPV4, less than 1 µM; at human TRPM8, greater than 10 µM.

Take `Cn1c(=O)c2c(ccn2CC(=O)Nc2nc(-c3ccc(OC(F)(F)F)cc3)cs2)n(C)c1=O` [Compound 34]: the IC50 on human TRPA1 was 0.0385 µM; on human TRPV1, greater than 10 µM; at human TRPV3 it was greater than 10 µM; on human TRPV4, greater than 10 µM; on human TRPM8, greater than 10 µM.

As to `Cn1c(=O)c2c(ccn2CC(=O)Nc2nc(-c3cc(Cl)c(OCCC(F)(F)F)c(Cl)c3)cs2)n(C)c1=O` [Compound 35], the IC50 is 0.0181 µM at human TRPA1; greater than 10 µM at human TRPV1; greater than 10 µM at human TRPV3; greater than 10 µM on human TRPV4; greater than 10 µM on human TRPM8.

For `Cn1c(=O)c2c(ccn2CC(=O)Nc2nc(-c3ccc(C(F)(F)F)c(F)c3)cs2)n(C)c1=O` [Compound 36], the IC50 is 0.0499 µM on human TRPA1; greater than 10 µM on human TRPV1; greater than 10 µM at human TRPV3; greater than 10 µM on human TRPV4; greater than 10 µM on human TRPM8.

For the molecule `Cn1c(=O)c2c(cnn2CC(=O)Nc2nc(-c3cc(Cl)c(OCC(C)(C)C)c(Cl)c3)cs2)n(C)c1=O` [Compound 37], the IC50 at human TRPA1 is 0.0123 µM; at human TRPV1, greater than 10 µM; at human TRPV3, greater than 10 µM; at human TRPV4, greater than 10 µM; on human TRPM8, greater than 10 µM.

With `Cn1nc2c(c1CC(=O)Nc1nc(-c3ccc(C(F)(F)F)c(F)c3)cs1)c(=O)n(C)c(=O)n2C` [Compound 38], the IC50 at human TRPA1 was 0.0159 µM; at human TRPV1, greater than 10 µM; on human TRPV3 it was greater than 10 µM; at human TRPV4 it was greater than 1 µM; at human TRPM8, greater than 10 µM.

In the case of `Cn1nc2c(c1CC(=O)Nc1nc(-c3ccc(C(F)(F)F)cc3)cs1)c(=O)n(C)c(=O)n2C` [Compound 39], the IC50 on human TRPA1 was 0.0266 µM; at human TRPV1, greater than 10 µM; on human TRPV3, greater than 10 µM; on human TRPV4, greater than 1 µM; on human TRPM8 it was greater than 10 µM.

In the case of `Cn1c(=O)c2c(cnn2CC(=O)Nc2nc(-c3cc(F)c(OCC(C)(C)C)c(F)c3)cs2)n(C)c1=O` [Compound 40], the IC50 at human TRPA1 is 0.0228 µM; on human TRPV1, greater than 10 µM; at human TRPV3 it was greater than 10 µM; on human TRPV4, greater than 10 µM; on human TRPM8 it was greater than 10 µM.

As for `Cn1nc2c(c1CC(=O)Nc1nc(-c3ccc(OC(F)(F)F)c(F)c3)cs1)c(=O)n(C)c(=O)n2C` [Compound 41], the IC50 on human TRPA1 is 0.011 µM; at human TRPV1 it was greater than 10 µM; on human TRPV3, greater than 10 µM; on human TRPV4, greater than 1 µM; on human TRPM8 it was greater than 10 µM.

For the molecule `Cn1c(=O)c2c(cnn2CC(=O)Nc2nc(-c3cc(F)c(OCC(C)(C)C)c(Cl)c3)cs2)n(C)c1=O` [Compound 42], the IC50 on human TRPA1 was 0.0114 µM; on human TRPV1, greater than 10 µM; on human TRPV3, greater than 10 µM; on human TRPV4, greater than 10 µM; at human TRPM8, greater than 10 µM.

Regarding `Cn1c(=O)c2c(cnn2CC(=O)Nc2nc(-c3cc(F)c(OCC4CCC4)c(F)c3)cs2)n(C)c1=O` [Compound 43], the half-inhibitory concentration (IC50) is 0.0184 µM at human TRPA1; greater than 10 µM on human TRPV1; greater than 10 µM at human TRPV3; greater than 1 µM on human TRPV4; greater than 10 µM at human TRPM8.

On to `Cn1c(=O)c2c(cnn2CC(=O)Nc2nc(-c3ccc(OCC(C)(C)C)c(F)c3)cs2)n(C)c1=O` [Compound 45], for which the concentration for half-maximal inhibition (IC50) on human TRPA1 was 0.0264 µM; on human TRPV1 it was greater than 10 µM; at human TRPV3, greater than 1 µM; at human TRPV4 it was greater than 1 µM; at human TRPM8, greater than 10 µM.

For `CC(C)c1sc2c(c1CC(=O)Nc1nc(-c3ccc(C(F)(F)F)c(F)c3)cs1)c(=O)n(C)c(=O)n2C` [Compound 46], the IC50 was 0.0413 µM on human TRPA1; greater than 10 µM on human TRPV1; greater than 10 µM at human TRPV3; greater than 10 µM at human TRPV4; greater than 1 µM on human TRPM8.
